Assay results from patent US5250541A, “Kynurenic acid derivatives, their preparation and pharmaceutical compositions containing them” (Fidia S.p.A., priority 1989, dated 1993).
Like-named read-outs stand apart in the source and are kept apart here.

Legend:
[1] = target: T1, glycine recognition site of the NMDA receptor-ion channel complex (cortical membranes), UniProt Q05586); assay: displacement of labelled glycine from cortical membranes; type: binding; conditions: cortical membranes; read-out: concentration displacing 50% of labelled glycine from its binding sites
T1 construct: from tissue
Text: (§1) 1) they displace labelled glycine from cortical membranes with an EC50 value 5-10 times lower than that of kynurenate;

[2] = test system: NMDA receptors present on guinea-pig ileum; assay: antagonism of glutamate or NMDA actions on guinea-pig ileum; type: cell-based; conditions: guinea-pig terminal ileum; read-out: concentration antagonising 50% of glutamate or NMDA actions
Text: 2) they antagonise in […] way the glutamate effect on NMDA receptors present on guinea-pig ileum: on this test their effect is competitively antagonized by glycine.

[3] = test system: mouse cerebral cortex slices; assay: antagonism of glutamate or NMDA actions on mouse cerebral cortex slices; type: cell-based; conditions: brain slices, read-out: concentration antagonising 50% of glutamate or NMDA actions
Text: (§2) The compounds I were also active in mouse cerebral cortex slices according to Proc. Natl. Acad. Sci. USA 85; 6547-6550--1988, in the prevention of glutamate toxicity in cultured cells and in the prevention of NMDA induced convulsions in mice.

cultured cells = assay: prevention of glutamate toxicity in cultured cells; type: cell-based
Text: as §2

[4] = test system: NMDA receptors present on guinea-pig ileum; conditions: guinea-pig myenteric plexus; cited from earlier work
[5] = target: T2, glycine recognition site of the NMDA receptor-ion channel complex (cortical membranes) (Homo sapiens, UniProt Q05586); assay: displacement of labelled glycine from cortical membranes; type: binding
T2 construct: from tissue
Text: as §1

O=C(O)c1cc(S)c2ccc(Cl)cc2n1 [7-chloro-4-thiokynurenic acid, 7-chloro-4-thio-quinoline-2-carboxylic acid]
IC50 [1]: 1000 nM | IC50 [2]: 5 µM | IC50 [3]: 5 µM | concentration antagonising the glutamate neurotoxicity (cultured cells): 0.08 µM

O=C(O)c1cc(=O)c2ccccc2[nH]1 [kynurenic acid]
antagonistic activity of the glutamate effect [4]: antagonistic activity of the glutamate effect

O=C(O)c1cc(S)c2ccccc2n1 [thiokynurenic acid, 4-thio-quinoline-2-carboxylic (thiokynurenic) acid]
mode of action at the glycine receptors [5]: competitive antagonists of the glycine receptors | mode of action at the glycine receptors ([5]; listed as 4thiokynurenic acid): competitive antagonists of a particular kind of glycine receptors
